Data reported in ChEMBL document CHEMBL1201862, “PubChem BioAssay data set” (2004).
Activity calls are given as the source filed them. Cut-off read from the data, not from the text of the source, for most assays here: actives have a measured EC50 and inactives only a lower limit.

Legend:
[1] = molecular target: Cytochrome P450 2C9 (Homo sapiens, UniProt P11712)
[2] = molecular target: Cytochrome P450 3A4 (Homo sapiens, UniProt P08684);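 note: CYP3A4 tested as one member of a cytochrome P450 panel screen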
Cytochrome P450 3A4, sequence (P08684 whole entry): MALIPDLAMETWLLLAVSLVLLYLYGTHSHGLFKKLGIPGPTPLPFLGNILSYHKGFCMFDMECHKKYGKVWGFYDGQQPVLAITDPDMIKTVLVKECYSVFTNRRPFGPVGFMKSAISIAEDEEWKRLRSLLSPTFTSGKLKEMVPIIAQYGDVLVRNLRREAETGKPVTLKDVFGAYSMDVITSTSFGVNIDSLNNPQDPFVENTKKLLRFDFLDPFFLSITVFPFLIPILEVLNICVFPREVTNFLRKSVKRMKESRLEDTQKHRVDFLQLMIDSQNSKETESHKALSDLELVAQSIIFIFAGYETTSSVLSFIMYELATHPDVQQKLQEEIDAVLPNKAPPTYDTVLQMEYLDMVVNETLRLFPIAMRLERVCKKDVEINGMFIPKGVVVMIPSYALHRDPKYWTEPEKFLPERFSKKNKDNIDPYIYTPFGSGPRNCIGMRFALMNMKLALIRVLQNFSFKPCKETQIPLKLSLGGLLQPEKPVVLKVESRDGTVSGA

[3] = Luminescence Cell-Based Dose Response HTS to Identify Activators of Luciferase Translation or Activity in H4 […] Cells. [Related pubchem assays: 1829 (Project Summary), 1814 (Primary HTS)]; type: functional
[4] = Luminescence Cell-Based Dose Confirmation HTS to Identify Activators of 5'UTR Stem-Loop Driven Alpha-Synuclein mRNA Translation in H4 Neuroglioblastoma Cells. [Related pubchem assays: 1829 (Project Summary), 1814 (Primary HTS)]; type: functional
[5] = test system: H4; assay: Luminescence Cell-Based Dose Response HTS to Identify Activators of 5'UTR Stem-Loop Driven Prion Protein mRNA Translation in H4 Neuroglioblastoma Cells. [Related pubchem assays: 1829 (Project Summary), 1814 (Primary HTS)]; type: functional; conditions: Homo sapiens
[6] = molecular target: Cytochrome P450 2D6 (Homo sapiens, UniProt P10635);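 note: CYP2D6 member of a cytochrome P450 panel assay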
Cytochrome P450 2D6, sequence (P10635 whole entry): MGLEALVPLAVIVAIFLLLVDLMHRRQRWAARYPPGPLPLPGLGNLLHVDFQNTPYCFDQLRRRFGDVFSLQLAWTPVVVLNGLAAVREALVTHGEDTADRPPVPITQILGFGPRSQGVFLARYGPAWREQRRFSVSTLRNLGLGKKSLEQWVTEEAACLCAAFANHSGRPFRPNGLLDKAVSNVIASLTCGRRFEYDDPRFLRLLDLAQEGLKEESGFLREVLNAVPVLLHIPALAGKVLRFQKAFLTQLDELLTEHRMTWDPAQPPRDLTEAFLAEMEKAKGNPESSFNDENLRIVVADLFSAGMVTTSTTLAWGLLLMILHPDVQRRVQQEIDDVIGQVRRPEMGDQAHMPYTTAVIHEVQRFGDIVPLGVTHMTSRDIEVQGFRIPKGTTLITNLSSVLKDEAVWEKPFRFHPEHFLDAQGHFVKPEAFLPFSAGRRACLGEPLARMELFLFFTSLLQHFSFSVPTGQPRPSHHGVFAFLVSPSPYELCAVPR

[7] = Luminescence Cell-Based Dose Retest to Confirm Inhibitors of Cancer Stem Cells. [Related pubchem assays (depositor defined):AID2717, AID2721]; type: functional; conditions: Homo sapiens
[8] = test system: Streptococcus sp. 'group A'; assay: Streptococcus pyogenes SK(-)GAS viability under kanamycin – luminescence, BacTiterGlo, confirmation, counter-screen for streptokinase expression inhibitor project, dose response (AID 1900); type: functional, organism-based
[9] = molecular target: T1, Streptokinase A (Streptococcus pyogenes serotype M1, UniProt P10520); assay: viability-normalized secreted streptokinase activity reduction – plasminogen activation absorbance, OD405, dose response (AID 1914); type: functional, Streptococcus pyogenes M1 GAS;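 note: secreted streptokinase activity via plasminogen activation per viability signal from cell pellet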
T1 sequence (P10520 whole entry): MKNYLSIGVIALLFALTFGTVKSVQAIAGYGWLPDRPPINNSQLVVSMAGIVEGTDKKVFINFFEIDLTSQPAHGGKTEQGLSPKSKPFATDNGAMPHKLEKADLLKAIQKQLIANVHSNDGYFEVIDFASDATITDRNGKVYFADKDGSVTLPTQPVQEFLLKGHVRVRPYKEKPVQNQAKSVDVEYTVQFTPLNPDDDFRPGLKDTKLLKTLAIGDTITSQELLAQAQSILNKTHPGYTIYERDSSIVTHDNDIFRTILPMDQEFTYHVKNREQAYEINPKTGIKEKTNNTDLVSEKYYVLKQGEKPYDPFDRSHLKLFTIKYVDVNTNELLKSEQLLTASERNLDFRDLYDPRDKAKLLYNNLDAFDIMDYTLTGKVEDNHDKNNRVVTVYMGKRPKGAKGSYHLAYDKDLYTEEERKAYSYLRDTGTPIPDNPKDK

[10] = test system: Streptococcus; assay: GAS UMAA2166 growth inhibition – luminescence, BacTiterGlo, counter-screen for streptokinase expression inhibitor project, dose response (AID 1915); type: functional, organism-based;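 note: potency for reduction of bacterial viability or growth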
[11] = molecular target: T2, Heat shock factor protein 1 (Mus musculus, UniProt P38532); assay: decrease of HSF1-responsive luciferase luminescence – cell-based, NIH3T3, dose retest, confirmation (AID 2382); type: functional;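 note: NIH3T3 fibroblasts with HSF1-driven luciferase reporter stressed by proteasome inhibitor MG132; luminescence from HSF1-driven luciferase expression after 8 hours of MG132 stress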
T2 sequence (P38532 whole entry): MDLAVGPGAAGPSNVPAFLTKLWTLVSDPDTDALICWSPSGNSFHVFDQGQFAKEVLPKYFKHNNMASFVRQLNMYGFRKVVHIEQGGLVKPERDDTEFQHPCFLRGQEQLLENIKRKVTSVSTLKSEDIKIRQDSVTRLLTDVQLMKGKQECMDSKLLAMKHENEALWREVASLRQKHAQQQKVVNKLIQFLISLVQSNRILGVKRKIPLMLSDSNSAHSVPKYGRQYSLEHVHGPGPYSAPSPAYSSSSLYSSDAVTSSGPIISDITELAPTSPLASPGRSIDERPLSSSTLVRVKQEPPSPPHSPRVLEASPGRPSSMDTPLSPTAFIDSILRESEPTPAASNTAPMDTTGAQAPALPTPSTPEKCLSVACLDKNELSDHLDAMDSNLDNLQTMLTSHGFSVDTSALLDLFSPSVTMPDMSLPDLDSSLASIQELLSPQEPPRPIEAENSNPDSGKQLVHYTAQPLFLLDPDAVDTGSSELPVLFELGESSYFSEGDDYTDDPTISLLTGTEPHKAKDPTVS

[12] = molecular target: T2, Heat shock factor protein 1; assay: enhancement of HSF1-driven luciferase signal – cell-based, NIH3T3, luminescence, dose retest, confirmation (AID 435004); type: functional;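 note: stress induced by proteasome inhibitor MG132 added 30 min after compound; luciferase reporter driven by HSF1 response element in NIH3T3 cells; actives raise luminescence as potentiators of the MG132 stress response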
[13] = viability of uninfected HEp-2 cells – cell-based, HTS, cytotoxicity control for RSV inhibitor project, dose response (AID 2410); type: functional; conditions: human respiratory syncytial virus
[14] = NIH3T3 cell viability loss – ATP luminescence, mouse fibroblasts, counter-screen, dose response (AID 2010); type: functional, cell-based;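 note: cells exposed to compound for about 90 hours before reading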
[15] = Trypanosoma cruzi growth suppression in host cells – NIH3T3 host cells, beta-gal luminescence, confirmation (AID 2044); type: functional, cell-based;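 note: intracellular parasites grown in NIH/3T3 mouse fibroblasts as host cells; luminescent beta-galactosidase reporter signal from transgenic T. cruzi replicating inside host cells; inhibitors lower the luminescence signal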

Cytochrome P450 2C9, sequence (P11712 whole entry): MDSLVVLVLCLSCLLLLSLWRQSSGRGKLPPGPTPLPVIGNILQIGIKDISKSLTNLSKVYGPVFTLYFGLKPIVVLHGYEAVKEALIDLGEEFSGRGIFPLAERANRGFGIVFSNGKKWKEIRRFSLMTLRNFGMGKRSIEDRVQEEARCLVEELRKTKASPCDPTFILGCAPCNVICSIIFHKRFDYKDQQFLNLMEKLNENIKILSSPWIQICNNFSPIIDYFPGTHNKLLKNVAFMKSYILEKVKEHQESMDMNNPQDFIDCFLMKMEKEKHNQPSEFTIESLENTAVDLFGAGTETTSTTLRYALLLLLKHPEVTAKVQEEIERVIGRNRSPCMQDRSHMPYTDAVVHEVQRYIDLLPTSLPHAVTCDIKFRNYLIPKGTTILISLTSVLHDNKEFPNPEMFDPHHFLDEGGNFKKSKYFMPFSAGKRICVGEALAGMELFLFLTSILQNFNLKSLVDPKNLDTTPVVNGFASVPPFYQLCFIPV

O=C(O)C[S+]([O-])c1ccc2c3c(cccc13)C(=O)c1ccccc1-2 (configuration not stated)
AC50 [1]: 6.31 µM (inconclusive) | AC50 [2]: 3.98 µM (inconclusive)

COc1ccc(OCc2cc(C(=O)N(C)Cc3cc(C)no3)no2)c(Cl)c1
EC50 [3]: 65.1 µM (active) | EC50 [4]: 1.42 µM (active) | EC50 [5]: 10.1 µM (active)

O=c1cnc2cnc(N3CCNCC3)nc2n1CCc1ccccc1
AC50 [1]: 20 µM (inconclusive) | AC50 [2]: 15.8 µM (inconclusive) | AC50 [6]: 15.8 µM (inconclusive)

CCN1C(=O)/C(=C\N2CCN(c3cccc(Cl)c3)CC2)SC1=S
AC50 [7]: 1.77 µM (active)

COc1cccc(-n2nnc3c(=O)n(Cc4ccccc4Cl)cnc32)c1
EC50 [8]: > 150 µM (not active) | EC50 [9]: > 150 µM (not active) | EC50 [10]: > 150 µM (not active) | EC50 [11]: > 195 µM (not active)

Oc1ccc(Br)cc1-c1cc(-c2ccccc2)[nH]n1
AC50 [7]: 4.95 µM (active)

CNC(C)C#Cc1ccc2sc3cc(OC)c(OC)cc3c(=O)c2c1 (configuration not stated)
EC50 [3]: 15.3 µM (active) | EC50 [4]: 22.3 µM (active) | EC50 [5]: > 120 µM (not active)

O=c1c2c(-c3ccccc3)ccnc2[nH]n1-c1ccccc1
EC50 [3]: 10.8 µM (active) | EC50 [4]: > 120 µM (not active) | EC50 [5]: > 120 µM (not active)

O=C(Cc1csc(NC(=O)Nc2cccc(Cl)c2)n1)NCc1cccnc1
EC50 [8]: 3.19 µM (active) | EC50 [9]: > 150 µM (not active) | EC50 [10]: 13.7 µM (active)

Cc1cc(C)c2c(NC(=O)C3CC3)nn(C)c2n1
EC50 [12]: > 260 µM (inactive)

Cc1ccc(OC(=O)NC2CCS(=O)(=O)C2)cc1C (configuration not stated)
EC50 [3]: > 120 µM (not active) | EC50 [4]: > 120 µM (not active) | EC50 [5]: > 120 µM (not active)

O=C(Nc1ccccc1)C1=C[C@@H](c2csc3ccccc23)C[C@@H](OCc2ccc(CO)cc2)O1
AC50 [7]: 2.65 µM (active)

O=C(CSc1nc(N2CCOCC2)nc(N2CCOCC2)n1)Nc1cccc(C(F)(F)F)c1
EC50 [8]: > 150 µM (not active) | EC50 [9]: > 150 µM (not active) | EC50 [10]: > 150 µM (not active)

Cn1c(=O)c(/C=C/c2ccc(F)cc2)nc2ccccc21
EC50 [12]: 36.5 µM (active)

CC1CCCC(N=C(S)Nc2ccc(SC(F)F)cc2)C1C (configuration not stated)
AC50 [7]: 5.61 µM (active)

CCOC(=O)C1CCN(c2c(NCc3ccc(C(=O)NCCC(C)C)cc3)c(=O)c2=O)CC1
AC50 [1]: 7.94 µM (inconclusive) | AC50 [2]: 7.94 µM (inconclusive) | AC50 [6]: 0.398 µM (inconclusive)

CCCC(C)c1nnc(NC(=O)COc2ccc3c(c2)OCO3)s1 (configuration not stated)
AC50 [7]: 5.69 µM (active)

CCC(C(=O)N1CCC(N2CCCCC2)CC1)n1nc(C)c2sc3ccccc3c2c1=O (configuration not stated)
EC50 [8]: > 150 µM (not active) | EC50 [9]: > 150 µM (not active) | EC50 [10]: > 150 µM (not active)

COc1ccccc1NC(=O)c1ccc(S(=O)(=O)N2CCCC(C)C2)cc1 (configuration not stated)
AC50 [7]: > 195 µM (inactive)

CCCCCCNC(=O)CN=C(S)N(Cc1cccs1)C1CCCCC1
EC50 [12]: > 260 µM (inactive)

O=C(COc1ccc(Br)cc1Br)NC(=O)NC1CCCC1
EC50 [3]: 33.4 µM (active) | EC50 [4]: 8.14 µM (active) | EC50 [5]: > 120 µM (not active)

Cc1ccccc1C(=O)ON=C(N)c1cccc([N+](=O)[O-])c1
EC50 [3]: 17 µM (active) | EC50 [4]: 13.8 µM (active) | EC50 [5]: 27.5 µM (active)

CC1(C)OC(C(O)(c2ccccc2)c2ccccc2)[C@@H](C(O)(c2ccccc2)c2ccccc2)O1 (some centres not stated)
EC50 [8]: 2.95 µM (active) | EC50 [9]: 2.78 µM (active) | EC50 [10]: > 150 µM (not active)

Nc1nc(CSCc2ccccc2)nc(N2CCOCC2)n1
EC50 [3]: 6.28 µM (active) | EC50 [4]: > 120 µM (not active) | EC50 [5]: 50.7 µM (active)

Oc1ccc2ccccc2c1CN1CCN(c2ccccc2)CC1
EC50 [12]: 49.8 µM (active)

Cc1ccc2nc(Nc3nc(=O)cc(-c4ccccc4)[nH]3)nc(C)c2c1
EC50 [9]: > 150 µM (not active)

Cc1ccc2nc(Nc3nc(O)cc(-c4ccccc4)n3)nc(C)c2c1
EC50 [8]: 2.94 µM (active) | EC50 [10]: 6.98 µM (active)

CC(=O)c1cccc(N(CC(=O)Nc2ccc(F)cc2F)S(C)(=O)=O)c1
EC50 [12]: 176 µM (active)

CC1CCC(NC(=O)Cn2c(=O)[nH]c3ccsc3c2=O)CC1 (configuration not stated)
EC50 [3]: 29.3 µM (active) | EC50 [4]: 12.4 µM (active) | EC50 [5]: 90.1 µM (active)

C=CCn1c(SCC(N)=O)nnc1-c1cc2c(s1)CCC(CC)C2 (configuration not stated)
EC50 [3]: 27.7 µM (active) | EC50 [4]: 3 µM (active) | EC50 [5]: 5.64 µM (active)

COc1cccc(Oc2nnnn2-c2ccccc2)c1
EC50 [3]: 54.7 µM (active) | EC50 [4]: 0.44 µM (active) | EC50 [5]: > 120 µM (not active)

COc1cccc(-c2ccc(C#N)c(OC(=O)c3c(Cl)cccc3Cl)n2)c1
CC50 [13]: 28.1 µM (active) | AC50 [7]: 3.52 µM (active)

Cc1ccc(C(=O)CCC2CCCCC2=O)cc1 (configuration not stated)
EC50 [3]: 36.7 µM (active) | EC50 [4]: 13.2 µM (active) | EC50 [5]: 28.4 µM (active)

Cc1ccc(-c2[nH]ncc2C(=O)c2ccc(Br)cc2)c(O)c1
EC50 [12]: > 260 µM (inactive)

CCOc1ccc2nc(N3CCCC(C(=O)NCC4CCCO4)C3)sc2c1 (configuration not stated)
EC50 [3]: 17.1 µM (active) | EC50 [4]: 17.5 µM (active) | EC50 [5]: 17.2 µM (active)

Cc1nn(C)c(C(=O)Nc2ccc(S(=O)(=O)NC34CC5CC(CC(C5)C3)C4)cc2)c1Br
EC50 [8]: 8.5 µM (active) | EC50 [9]: 16.8 µM (active) | EC50 [10]: 16.5 µM (active) | EC50 [14]: > 60 µM (inconclusive) | EC50 [15]: 2.79 µM (active)

Cc1cc2c3c(c1)C1(C(=O)N3C(C)(C)CC2C)C(C#N)=C(N)Oc2cc(O)ccc21 (configuration not stated)
EC50 [12]: 54.7 µM (active) | EC50 [14]: > 60 µM (not active) | EC50 [15]: 1.41 µM (active)

CCc1ccccc1NC(=O)CC(c1ccc(OC)cc1)n1cccc1 (configuration not stated)
EC50 [12]: > 260 µM (inactive)

CCOC(=O)CC1C(=O)NCCN1S(=O)(=O)c1cc(Cl)c(Cl)cc1Cl (configuration not stated)
EC50 [12]: > 260 µM (inactive)

Brc1ccccc1-n1nnc(-c2cnc3ccccc3c2)n1
EC50 [12]: > 260 µM (inactive)

COc1cc(/C=N/Nc2ncnc3sc4c(c23)CCC4)ccc1O
EC50 [8]: 3.88 µM (active) | EC50 [9]: 5.06 µM (active) | EC50 [10]: > 150 µM (not active)

COc1ccc(/C=N/N(c2ccccc2)c2ccccc2)cc1O
AC50 [7]: 6.76 µM (active)

C/C(=N\NC(=O)c1nnn(-c2nonc2N)c1CN1CCCCC1)c1ccccc1O
AC50 [7]: 3.42 µM (active)

Cc1ccc(/C=c2\s/c(=C(/C#N)C(=O)N3CCCC3)n(Cc3ccco3)c2=O)s1
EC50 [12]: 9.99 µM (active)

C=CCn1c(O)cc(=O)nc1SC(C)CC (configuration not stated)
EC50 [8]: 21.3 µM (active) | EC50 [9]: > 150 µM (not active) | EC50 [10]: > 150 µM (not active)
